compound: O=[As]([O-])(O)O.[K+] [potassium arsenate]; test: thermal stability z-score vs DMSO; higher = more thermally stabilized by treatment; settings: HeLa; arsenate concentration 1 mM
Protocol: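 Cellular thermal proteome profiling in HeLa cells treated with 1 mM arsenate for 1 h (DMSO pretreatment), heated to ten temperatures (37-66.3 °C). Soluble protein was quantified by TMT mass spectrometry relative to DMSO controls; the thermal stability score was transformed to a z-score; mean of n = 3 experiments.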
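Also: each temperature applied for 3 min, abundance score taken as mean log2 fold change at the two lowest temperatures, z-score obtained by mean subtraction and division by SD.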

Chain of UniProt P25440 (P25440 whole entry, looked up): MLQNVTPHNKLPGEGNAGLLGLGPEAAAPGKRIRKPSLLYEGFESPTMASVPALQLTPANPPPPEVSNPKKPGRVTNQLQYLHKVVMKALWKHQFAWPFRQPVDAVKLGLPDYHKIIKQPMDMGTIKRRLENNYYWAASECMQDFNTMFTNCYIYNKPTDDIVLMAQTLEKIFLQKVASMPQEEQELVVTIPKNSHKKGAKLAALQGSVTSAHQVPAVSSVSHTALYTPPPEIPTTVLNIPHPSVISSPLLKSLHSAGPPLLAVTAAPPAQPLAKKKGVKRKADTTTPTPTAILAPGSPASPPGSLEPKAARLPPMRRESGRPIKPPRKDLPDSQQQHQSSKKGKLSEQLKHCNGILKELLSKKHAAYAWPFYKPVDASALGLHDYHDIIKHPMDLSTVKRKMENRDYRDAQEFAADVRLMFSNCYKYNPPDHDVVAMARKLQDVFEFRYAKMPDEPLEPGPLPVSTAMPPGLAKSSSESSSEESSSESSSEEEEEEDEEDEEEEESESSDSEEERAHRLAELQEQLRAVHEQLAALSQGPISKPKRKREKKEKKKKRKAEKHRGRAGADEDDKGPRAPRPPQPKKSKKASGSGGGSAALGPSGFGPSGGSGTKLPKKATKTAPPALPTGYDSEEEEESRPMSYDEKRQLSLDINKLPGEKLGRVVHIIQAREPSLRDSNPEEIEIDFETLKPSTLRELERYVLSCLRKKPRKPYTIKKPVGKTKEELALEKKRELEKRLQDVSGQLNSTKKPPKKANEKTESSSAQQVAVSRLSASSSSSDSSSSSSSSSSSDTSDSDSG
Chain of UniProt Q8IUF8 (Q8IUF8 whole entry): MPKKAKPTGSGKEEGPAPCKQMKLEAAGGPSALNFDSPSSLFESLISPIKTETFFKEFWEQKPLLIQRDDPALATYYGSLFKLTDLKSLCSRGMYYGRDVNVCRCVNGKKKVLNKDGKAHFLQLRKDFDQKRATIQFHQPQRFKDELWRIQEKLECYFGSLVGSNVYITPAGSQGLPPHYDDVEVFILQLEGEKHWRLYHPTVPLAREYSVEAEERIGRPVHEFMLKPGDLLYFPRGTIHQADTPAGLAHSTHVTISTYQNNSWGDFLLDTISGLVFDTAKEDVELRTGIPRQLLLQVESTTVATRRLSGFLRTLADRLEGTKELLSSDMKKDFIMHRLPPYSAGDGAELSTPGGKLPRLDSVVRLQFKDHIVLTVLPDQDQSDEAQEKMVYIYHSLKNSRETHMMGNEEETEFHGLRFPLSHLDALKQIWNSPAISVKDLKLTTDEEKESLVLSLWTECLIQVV
Chain of UniProt Q9H3R5 (Q9H3R5 whole entry): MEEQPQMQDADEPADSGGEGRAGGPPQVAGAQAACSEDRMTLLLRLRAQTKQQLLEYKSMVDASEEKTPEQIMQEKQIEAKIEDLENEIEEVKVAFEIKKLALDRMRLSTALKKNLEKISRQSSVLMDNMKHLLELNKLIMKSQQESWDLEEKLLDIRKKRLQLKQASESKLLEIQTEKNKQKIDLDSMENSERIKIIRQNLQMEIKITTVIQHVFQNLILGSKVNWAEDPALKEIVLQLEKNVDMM
Chain of UniProt P01034 (P01034 whole entry): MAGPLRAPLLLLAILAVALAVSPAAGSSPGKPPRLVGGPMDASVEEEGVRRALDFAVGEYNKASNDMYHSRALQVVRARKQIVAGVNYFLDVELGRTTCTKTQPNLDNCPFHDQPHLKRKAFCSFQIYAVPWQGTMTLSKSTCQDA
Chain of UniProt Q6XZF7 (Q6XZF7 whole entry): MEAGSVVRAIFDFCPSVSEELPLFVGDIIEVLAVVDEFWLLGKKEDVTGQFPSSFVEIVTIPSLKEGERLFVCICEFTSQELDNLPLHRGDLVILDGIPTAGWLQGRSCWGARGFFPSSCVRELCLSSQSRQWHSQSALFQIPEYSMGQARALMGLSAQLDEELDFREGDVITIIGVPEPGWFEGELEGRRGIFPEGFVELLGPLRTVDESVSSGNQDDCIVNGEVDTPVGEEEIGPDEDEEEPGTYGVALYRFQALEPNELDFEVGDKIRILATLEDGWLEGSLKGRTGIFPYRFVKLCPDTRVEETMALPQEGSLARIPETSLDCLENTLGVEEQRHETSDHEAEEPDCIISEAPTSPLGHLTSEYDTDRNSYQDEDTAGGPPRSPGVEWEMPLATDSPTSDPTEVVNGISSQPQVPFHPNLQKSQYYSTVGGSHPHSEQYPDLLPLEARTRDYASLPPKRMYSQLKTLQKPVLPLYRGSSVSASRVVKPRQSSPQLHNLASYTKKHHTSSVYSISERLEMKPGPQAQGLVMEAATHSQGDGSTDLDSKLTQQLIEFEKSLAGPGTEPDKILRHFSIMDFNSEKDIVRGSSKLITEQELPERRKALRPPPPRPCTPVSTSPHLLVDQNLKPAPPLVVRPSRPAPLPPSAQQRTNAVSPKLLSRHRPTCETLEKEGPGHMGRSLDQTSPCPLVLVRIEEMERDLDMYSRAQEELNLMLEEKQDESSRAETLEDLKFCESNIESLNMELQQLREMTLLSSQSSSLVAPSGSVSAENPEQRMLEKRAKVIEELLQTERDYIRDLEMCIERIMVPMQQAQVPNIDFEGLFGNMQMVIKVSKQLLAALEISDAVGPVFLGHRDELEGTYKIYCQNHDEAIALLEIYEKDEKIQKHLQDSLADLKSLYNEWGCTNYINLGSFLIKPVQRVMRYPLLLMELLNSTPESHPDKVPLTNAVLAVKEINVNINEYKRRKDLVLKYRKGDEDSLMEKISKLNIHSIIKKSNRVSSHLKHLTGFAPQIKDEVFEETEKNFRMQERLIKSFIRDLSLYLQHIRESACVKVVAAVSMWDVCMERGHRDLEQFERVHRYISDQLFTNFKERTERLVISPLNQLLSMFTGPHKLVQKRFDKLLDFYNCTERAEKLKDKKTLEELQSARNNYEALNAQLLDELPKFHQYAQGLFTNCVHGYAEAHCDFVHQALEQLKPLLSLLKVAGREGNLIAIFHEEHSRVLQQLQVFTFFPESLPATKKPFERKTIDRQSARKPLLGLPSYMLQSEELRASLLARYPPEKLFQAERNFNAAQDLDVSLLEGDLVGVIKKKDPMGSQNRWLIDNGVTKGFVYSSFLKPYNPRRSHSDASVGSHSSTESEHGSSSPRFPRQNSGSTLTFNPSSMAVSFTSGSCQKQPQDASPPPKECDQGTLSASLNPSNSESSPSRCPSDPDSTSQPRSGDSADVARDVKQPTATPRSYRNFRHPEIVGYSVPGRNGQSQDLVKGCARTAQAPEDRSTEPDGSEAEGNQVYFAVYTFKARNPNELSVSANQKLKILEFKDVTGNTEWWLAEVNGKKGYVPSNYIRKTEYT
Chain of UniProt Q9NR45 (Q9NR45 whole entry): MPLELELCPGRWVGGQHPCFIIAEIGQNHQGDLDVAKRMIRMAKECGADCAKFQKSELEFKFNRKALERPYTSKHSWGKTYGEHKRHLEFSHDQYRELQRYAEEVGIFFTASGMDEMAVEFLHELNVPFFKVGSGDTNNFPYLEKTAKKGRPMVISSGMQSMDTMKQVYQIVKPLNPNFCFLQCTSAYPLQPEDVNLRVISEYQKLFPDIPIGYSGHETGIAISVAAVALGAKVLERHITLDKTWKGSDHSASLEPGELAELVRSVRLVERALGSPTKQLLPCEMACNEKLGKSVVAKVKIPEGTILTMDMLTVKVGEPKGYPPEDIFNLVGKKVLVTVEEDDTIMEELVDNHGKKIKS
Chain of UniProt Q9NYP7 (Q9NYP7 whole entry): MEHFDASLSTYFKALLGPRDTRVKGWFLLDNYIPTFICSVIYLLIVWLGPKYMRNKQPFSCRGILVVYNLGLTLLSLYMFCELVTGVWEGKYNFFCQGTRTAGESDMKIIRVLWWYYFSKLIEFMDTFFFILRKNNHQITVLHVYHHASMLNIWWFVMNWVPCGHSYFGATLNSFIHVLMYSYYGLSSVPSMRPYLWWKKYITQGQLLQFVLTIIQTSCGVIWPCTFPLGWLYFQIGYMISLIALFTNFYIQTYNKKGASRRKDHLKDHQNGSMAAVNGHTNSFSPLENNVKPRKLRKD
Chain of UniProt P15311 (P15311 whole entry): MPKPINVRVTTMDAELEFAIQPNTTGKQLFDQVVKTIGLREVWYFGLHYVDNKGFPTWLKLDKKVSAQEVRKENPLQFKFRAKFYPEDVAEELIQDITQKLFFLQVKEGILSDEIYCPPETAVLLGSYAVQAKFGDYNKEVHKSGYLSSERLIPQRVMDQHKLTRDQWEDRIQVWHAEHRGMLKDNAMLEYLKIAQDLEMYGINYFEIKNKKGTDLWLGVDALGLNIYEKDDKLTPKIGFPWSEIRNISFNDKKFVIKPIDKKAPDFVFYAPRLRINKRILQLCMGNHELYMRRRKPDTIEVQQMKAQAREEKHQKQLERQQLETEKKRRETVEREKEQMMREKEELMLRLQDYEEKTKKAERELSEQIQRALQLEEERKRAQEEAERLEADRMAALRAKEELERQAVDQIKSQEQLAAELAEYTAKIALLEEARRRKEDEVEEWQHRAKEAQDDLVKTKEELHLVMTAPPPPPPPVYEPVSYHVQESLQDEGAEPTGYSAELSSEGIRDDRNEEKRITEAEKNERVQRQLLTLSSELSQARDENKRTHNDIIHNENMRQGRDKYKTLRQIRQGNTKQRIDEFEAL
Chain of UniProt Q86WW8 (Q86WW8 whole entry): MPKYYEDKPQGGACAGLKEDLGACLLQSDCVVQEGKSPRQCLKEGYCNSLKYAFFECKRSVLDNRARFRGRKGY
Chain of UniProt P37837 (P37837 whole entry): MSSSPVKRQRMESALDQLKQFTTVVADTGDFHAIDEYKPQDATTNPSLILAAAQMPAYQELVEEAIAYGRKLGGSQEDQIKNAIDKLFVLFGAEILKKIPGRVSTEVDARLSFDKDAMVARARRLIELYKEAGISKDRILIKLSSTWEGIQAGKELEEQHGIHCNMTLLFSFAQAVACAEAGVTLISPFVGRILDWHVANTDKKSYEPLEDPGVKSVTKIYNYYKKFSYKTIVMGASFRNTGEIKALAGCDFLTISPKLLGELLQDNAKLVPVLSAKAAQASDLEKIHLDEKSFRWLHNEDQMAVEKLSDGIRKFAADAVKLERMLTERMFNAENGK

Point of comparison: USP24 (UniProt Q9UPU5), thermal stability z-score -0.117. Against it:
- ACADVL (UniProt P49748) — lower, -0.558
- NDUFA10 (UniProt O95299) — lower, -0.167
- GLRX2 (UniProt Q9NS18) — higher, 3.8
- CDK6 (UniProt Q00534) — higher, 0.123
- CBX8 (UniProt Q9HC52) — higher, -0.0579
- LMTK2 (UniProt Q8IWU2) — higher, 1.04
- IQGAP1 (UniProt P46940) — lower, -1.08
- UTP4 (UniProt Q969X6) — higher, 0.0306
- ELOVL5 (UniProt Q9NYP7) — higher, 0.0723
- TOX4 (UniProt O94842) — higher, -0.108
- NANS (UniProt Q9NR45) — higher, 0.887
- RHOT1 (UniProt Q8IXI2) — lower, -0.708
- DNMBP (UniProt Q6XZF7) — higher, 0.897
- MINA (UniProt Q8IUF8) — lower, -1.34
- DDX31 (UniProt Q9H8H2) — lower, -0.348
- IMPDH1 (UniProt P20839) — higher, 1.28
- NUBP1 (UniProt P53384) — lower, -0.302
- AHCY (UniProt P23526) — lower, -1.82
- ATG13 (UniProt O75143) — higher, 0.699
- INSR (UniProt P06213) — higher, 0.639
- ATP5A1 (UniProt P25705) — lower, -0.382
- EPPK1 (UniProt P58107) — lower, -0.359
- GTF2B (UniProt Q00403) — lower, -1.93
- LRPPRC (UniProt P42704) — lower, -0.267
- ARL2 (UniProt P36404) — higher, 0.664
- FAH (UniProt P16930) — lower, -0.623
- COA5 (UniProt Q86WW8) — higher, 0.0388
- PODXL (UniProt O00592) — higher, 0.395
- TALDO1 (UniProt P37837) — higher, 0.839
- STK4 (UniProt Q13043) — lower, -0.188
- GTPBP10 (UniProt A4D1E9) — higher, 0.522
- EIF6 (UniProt P56537) — lower, -2.24
- WFS1 (UniProt O76024) — higher, -0.022
- EZR (UniProt P15311) — lower, -0.481
- FIS1 (UniProt Q9Y3D6) — lower, -0.678
- UROS (UniProt P10746) — lower, -2.43
- GTF3C2 (UniProt Q8WUA4) — lower, -0.411
- CD70 (UniProt P32970) — lower, -0.313
- ZBTB7A (UniProt O95365) — lower, -1.13
- BRD2 (UniProt P25440) — lower, -0.153
- BCAR1 (UniProt P56945) — lower, -0.154
- CST3 (UniProt P01034) — higher, 0.472
- TEFM (UniProt Q96QE5) — higher, 0.106
- TNRC6B (UniProt Q9UPQ9) — lower, -0.306
- CENPH (UniProt Q9H3R5) — higher, 0.184
- RPL17 (UniProt P18621) — lower, -0.755
- FAM219A (UniProt Q8IW50) — lower, -9.1
- DBNL (UniProt Q9UJU6) — higher, 0.99
- DHPS (UniProt P49366) — higher, 0.603
- PITPNA (UniProt Q00169) — lower, -0.787
- NIPSNAP1 (UniProt Q9BPW8) — lower, -0.872
- PPP6R1 (UniProt Q9UPN7) — lower, -0.671
- TOR3A (UniProt Q9H497) — higher, 0.553
- LEO1 (UniProt Q8WVC0) — higher, 0.239

compound: NC(=O)CCCCC1CCSS1 [lipoamide]; test: as above; settings: HeLa; lipoamide concentration 100 µM; arsenate co-treatment: 1 mM arsenate 1 h
Protocol: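 Cellular thermal proteome profiling in HeLa cells. Cells were treated with 100 µM lipoamide for 1 h, with or without 1 mM arsenate for a further 1 h, then heated to ten temperatures (37-66.3 °C), and soluble protein was quantified by TMT mass spectrometry relative to 0.1% DMSO controls. The thermal stability score (sum of log2 fold changes minus the abundance score) was transformed to a z-score; mean of n = 3 experiments.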

Point of comparison: BCAR1 (UniProt P56945), thermal stability z-score -0.559. Against it:
- ACADVL (UniProt P49748) — lower, -0.94
- NDUFA10 (UniProt O95299) — higher, -0.327
- GLRX2 (UniProt Q9NS18) — higher, 1.4
- CDK6 (UniProt Q00534) — higher, -0.218
- CBX8 (UniProt Q9HC52) — higher, 0.035
- LMTK2 (UniProt Q8IWU2) — higher, -0.465
- IQGAP1 (UniProt P46940) — higher, 0.776
- UTP4 (UniProt Q969X6) — higher, 0.167
- ELOVL5 (UniProt Q9NYP7) — higher, -0.00466
- TOX4 (UniProt O94842) — higher, -0.0663
- NANS (UniProt Q9NR45) — higher, 0.185
- RHOT1 (UniProt Q8IXI2) — higher, -0.488
- DNMBP (UniProt Q6XZF7) — higher, -0.142
- MINA (UniProt Q8IUF8) — higher, 0.0507
- DDX31 (UniProt Q9H8H2) — higher, 0.19
- IMPDH1 (UniProt P20839) — higher, -0.546
- NUBP1 (UniProt P53384) — higher, -0.23
- AHCY (UniProt P23526) — higher, 0.488
- ATG13 (UniProt O75143) — higher, -0.00854
- INSR (UniProt P06213) — higher, 0.408
- ATP5A1 (UniProt P25705) — higher, -0.144
- EPPK1 (UniProt P58107) — higher, -0.00734
- GTF2B (UniProt Q00403) — higher, -0.0775
- LRPPRC (UniProt P42704) — lower, -1.08
- ARL2 (UniProt P36404) — higher, -0.405
- FAH (UniProt P16930) — higher, 0.241
- COA5 (UniProt Q86WW8) — higher, -0.51
- PODXL (UniProt O00592) — higher, 0.0978
- TALDO1 (UniProt P37837) — higher, 0.471
- STK4 (UniProt Q13043) — higher, 0.0921
- GTPBP10 (UniProt A4D1E9) — lower, -0.946
- EIF6 (UniProt P56537) — lower, -0.689
- WFS1 (UniProt O76024) — higher, -0.47
- EZR (UniProt P15311) — higher, 1.01
- FIS1 (UniProt Q9Y3D6) — higher, -0.114
- UROS (UniProt P10746) — higher, -0.306
- GTF3C2 (UniProt Q8WUA4) — higher, 0.112
- CD70 (UniProt P32970) — higher, 1.03
- USP24 (UniProt Q9UPU5) — higher, -0.197
- ZBTB7A (UniProt O95365) — higher, 0.428
- BRD2 (UniProt P25440) — higher, -0.0745
- CST3 (UniProt P01034) — lower, -0.744
- TEFM (UniProt Q96QE5) — higher, 0.0966
- TNRC6B (UniProt Q9UPQ9) — higher, -0.194
- CENPH (UniProt Q9H3R5) — lower, -0.976
- RPL17 (UniProt P18621) — higher, 0.743
- FAM219A (UniProt Q8IW50) — lower, -1.69
- DBNL (UniProt Q9UJU6) — higher, 0.473
- DHPS (UniProt P49366) — higher, 0.538
- PITPNA (UniProt Q00169) — higher, 0.386
- NIPSNAP1 (UniProt Q9BPW8) — lower, -1.48
- PPP6R1 (UniProt Q9UPN7) — higher, -0.476
- TOR3A (UniProt Q9H497) — lower, -1.02
- LEO1 (UniProt Q8WVC0) — higher, 1.13

same assay, conditions: HeLa; lipoamide concentration 100 µM; arsenate co-treatment: none

Point of comparison: TEFM (UniProt Q96QE5), thermal stability z-score 0.0631. Against it:
- ACADVL (UniProt P49748) — lower, -1.06
- NDUFA10 (UniProt O95299) — lower, -0.199
- GLRX2 (UniProt Q9NS18) — higher, 1.7
- CDK6 (UniProt Q00534) — higher, 0.136
- CBX8 (UniProt Q9HC52) — higher, 0.14
- LMTK2 (UniProt Q8IWU2) — lower, -0.397
- IQGAP1 (UniProt P46940) — higher, 0.818
- UTP4 (UniProt Q969X6) — higher, 0.0645
- ELOVL5 (UniProt Q9NYP7) — lower, -0.551
- TOX4 (UniProt O94842) — lower, -0.0734
- NANS (UniProt Q9NR45) — higher, 0.107
- RHOT1 (UniProt Q8IXI2) — lower, -0.262
- DNMBP (UniProt Q6XZF7) — lower, -0.138
- MINA (UniProt Q8IUF8) — higher, 0.508
- DDX31 (UniProt Q9H8H2) — lower, 0.0101
- IMPDH1 (UniProt P20839) — lower, -0.319
- NUBP1 (UniProt P53384) — higher, 0.385
- AHCY (UniProt P23526) — higher, 0.146
- ATG13 (UniProt O75143) — higher, 0.21
- INSR (UniProt P06213) — higher, 0.683
- ATP5A1 (UniProt P25705) — lower, -0.0322
- EPPK1 (UniProt P58107) — lower, 0.0541
- GTF2B (UniProt Q00403) — higher, 0.338
- LRPPRC (UniProt P42704) — lower, -0.312
- ARL2 (UniProt P36404) — lower, -0.0766
- FAH (UniProt P16930) — lower, -0.125
- COA5 (UniProt Q86WW8) — lower, -0.761
- PODXL (UniProt O00592) — higher, 0.132
- TALDO1 (UniProt P37837) — higher, 0.557
- STK4 (UniProt Q13043) — lower, -0.0308
- GTPBP10 (UniProt A4D1E9) — higher, 0.2
- EIF6 (UniProt P56537) — lower, -0.681
- WFS1 (UniProt O76024) — lower, -0.487
- EZR (UniProt P15311) — higher, 0.661
- FIS1 (UniProt Q9Y3D6) — higher, 0.595
- UROS (UniProt P10746) — lower, -0.445
- GTF3C2 (UniProt Q8WUA4) — lower, 0.0176
- CD70 (UniProt P32970) — higher, 0.355
- USP24 (UniProt Q9UPU5) — lower, -0.413
- ZBTB7A (UniProt O95365) — lower, -0.495
- BRD2 (UniProt P25440) — higher, 0.075
- BCAR1 (UniProt P56945) — lower, -0.583
- CST3 (UniProt P01034) — lower, -0.0182
- TNRC6B (UniProt Q9UPQ9) — lower, -0.00843
- CENPH (UniProt Q9H3R5) — higher, 0.153
- RPL17 (UniProt P18621) — higher, 0.704
- FAM219A (UniProt Q8IW50) — higher, 2.4
- DBNL (UniProt Q9UJU6) — higher, 0.208
- DHPS (UniProt P49366) — higher, 0.536
- PITPNA (UniProt Q00169) — higher, 0.434
- NIPSNAP1 (UniProt Q9BPW8) — lower, -0.204
- PPP6R1 (UniProt Q9UPN7) — lower, -0.635
- TOR3A (UniProt Q9H497) — lower, -0.712
- LEO1 (UniProt Q8WVC0) — higher, 0.765
